Measurements taken from patent publication US11447486B2, “2-amino-benzimidazole derivatives and their use as 5-lipoxygenase and/or prostaglandin E synthase inhibitors” (INSTITUT PASTEUR KOREA, priority 2014, dated 2022).

What was measured:
human 5-LOX = biological target: T1, human 5-LOX (Homo sapiens, UniProt P09917); test: 5-LOX enzyme activity, fluorescence method (5-HPETE, H2DCFDA); assay type: biochemical; conditions: read-out: 5-LO (IC50)
T1 construct: purchased Cayman 60402; host or cells: insect cells (lysate)
T1 sequence (P09917 1-674): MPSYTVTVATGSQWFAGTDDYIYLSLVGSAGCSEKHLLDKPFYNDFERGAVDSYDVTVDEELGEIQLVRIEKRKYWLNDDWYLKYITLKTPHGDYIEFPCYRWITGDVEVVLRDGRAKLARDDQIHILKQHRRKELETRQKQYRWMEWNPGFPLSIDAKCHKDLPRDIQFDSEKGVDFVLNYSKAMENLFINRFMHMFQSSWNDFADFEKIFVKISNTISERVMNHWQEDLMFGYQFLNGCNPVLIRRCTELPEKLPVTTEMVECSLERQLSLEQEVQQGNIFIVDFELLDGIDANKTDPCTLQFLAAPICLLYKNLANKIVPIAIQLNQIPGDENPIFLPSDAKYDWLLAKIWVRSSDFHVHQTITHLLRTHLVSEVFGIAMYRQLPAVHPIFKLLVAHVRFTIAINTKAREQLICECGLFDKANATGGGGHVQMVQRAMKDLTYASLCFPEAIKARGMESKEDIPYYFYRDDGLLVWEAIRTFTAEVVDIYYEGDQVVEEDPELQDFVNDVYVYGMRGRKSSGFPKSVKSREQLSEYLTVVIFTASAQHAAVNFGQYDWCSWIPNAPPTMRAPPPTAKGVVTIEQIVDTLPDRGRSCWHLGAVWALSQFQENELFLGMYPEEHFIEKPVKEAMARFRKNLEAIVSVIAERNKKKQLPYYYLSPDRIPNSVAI
In short: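 Fluorescence-based read-out, run entirely at room temperature. Enzyme mixture was exposed to a dose range of compound from 0.5 nM to 10 uM for 5 min before ATP and arachidonic acid were added to final levels of 100 uM and 3 uM.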

Rat whole blood (RWB) = test: LTB4 secretion assay in RWB (rat whole blood); assay type: cell-based; conditions: Rattus norvegicus
Procedure: Rat blood was drawn from caudal vena cava from male Sprague Dawley rat (6-9 weeks old) in vacuette coated with sodium heparin (Greiner bio-one, Cat #455051). The blood was pooled and diluted with RPMI (WelGENE, Cat #LM 011-05) to 1:1. The diluted blood was aliquoted into 96 well plate (200 ul per well) and compounds were added in dose response to a desired concentration ranging from 2.5 nM to 50 uM. After 15 min of pre-incubation at 37° C., calcium ionophore (A23187) was added to the final concentration of 10 uM. After 10 min of further incubation at 37° C., the LTB4 production was stopped by diluting the reaction mixture with ice cold PBS (1:4 dilutions). Cells were removed by centrifugation at 1000×g, 4° C. for 10 min, and the supernatant was transferred and then the quantification of LTB4 was done with Leukotriene B4 EIA kit (Cayman, Cat #520111) as instructed.

[1] = tested on: Rat basophilic leukemia (RBL) cells; test: LTB4 secretion assay in RBL (rat basophilic leukemia cells); assay type: cell-based; conditions: Rattus norvegicus, RBL
In short: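 LTB4 released into supernatant was measured by EIA after 10 min at 37 °C with arachidonic acid (2.5 uM final) and calcium ionophore A23187 (5 uM final). Before stimulation, cells plated 2×10^4/well overnight received compound doses (5 nM to 100 uM) for 15 min in 0.5% FBS medium.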

Structure (SMILES) | IC50 (human 5-LOX) | EC50 (Rat whole blood (RWB)) | EC50 [1]
Cn1c(NCc2ccc(Oc3ncc(C#N)cn3)cc2)nc2ccc(NC3COC3)cc21 [Compound 368] | < 1 µM | < 10 µM | < 10 µM
Cn1c(NCc2ccc(Oc3ccc(Cl)cn3)cc2F)nc2ccc(NC3COC3)cc21 [Compound 273] | < 1 µM | 10 to 20 µM | < 10 µM
CCn1c(NCc2ccc(Oc3ncc(C(F)(F)F)cn3)cc2F)nc2ccc(Nc3cc(C(F)(F)F)n(C)n3)cc21 [Compound 527] | > 10 µM | < 10 µM | < 10 µM
Nc1ccc2nc(NCc3ccc(C(=O)c4ccc(Cl)cc4)cc3)[nH]c2c1 [Compound 130] | < 1 µM | < 10 µM | < 10 µM
CCn1c(NCc2ccc(Oc3ncc(Cl)cn3)cc2F)nc2ccc(Nc3cc(C)[nH]n3)cc21 [Compound 536] | < 1 µM | < 10 µM | < 10 µM
Nc1ccc2nc(NCCOc3ccc(OC(F)(F)F)cc3)[nH]c2c1 [Compound 62] | < 1 µM | < 10 µM | < 10 µM
Cc1ccc(Oc2ccc(CNc3nc4ccc(N)cc4n3C)cc2)nn1 [Compound 311] | < 1 µM | < 10 µM | > 20 µM
Cn1c(NCc2ccc(Oc3ncc(Cl)cn3)cc2)nc2ccc(Nc3ccccn3)cc21 [Compound 447] | 1 to 10 µM | < 10 µM | < 10 µM
Cn1c(NCc2ccc(Oc3ncc(Cl)cn3)cc2)nc2ccc(NC3COC3)cc21 [Compound 289] | < 1 µM | < 10 µM | < 10 µM
CN(C)c1nc2cc(N)ccc2n1CCOc1ccc(Cl)cc1 [Compound 38] | < 1 µM | > 20 µM | < 10 µM
Cn1c(NCc2ccc(Nc3ncc(Cl)cn3)cc2)nc2ccc(NC3COC3)cc21 [Compound 461] | < 1 µM | < 10 µM | < 10 µM
Cc1cc(Oc2ncc(Cl)cn2)cc(C)c1CNc1nc2ccc(NC3COC3)cc2n1C [Compound 417] | < 1 µM | > 20 µM | > 20 µM
Nc1ccc2[nH]c(NCc3ccc(Oc4ccc(Cl)cc4Cl)cc3)nc2c1 [Compound 135] | < 1 µM | 10 to 20 µM | < 10 µM
Nc1ccc2nc(N)n(Cc3ccc(Oc4ccc(Cl)cc4)cn3)c2c1 [Compound 239] | < 1 µM | < 10 µM | < 10 µM
Nc1ccc2[nH]c(NCc3ccc4ccccc4c3)nc2c1 [Compound 81] | < 1 µM | < 10 µM | < 10 µM
Cn1c(NCc2ccc(Oc3cc(Cl)ncn3)cc2)nc2ccc(NC3COC3)cc21 [Compound 394] | < 1 µM | > 20 µM | 10 to 20 µM
Cn1c(NCCOc2ccc(OC(F)(F)F)c(Cl)c2)nc2cc(N)ccc21 [Compound 59] | < 1 µM | > 20 µM | < 10 µM
Cc1cc(Nc2ccc3nc(NCc4ccc(Oc5ncc(OC(F)(F)F)cn5)cc4)n(C)c3c2)n[nH]1 [Compound 482] | < 1 µM | < 10 µM | < 10 µM
Cc1cc(Nc2ccc3nc(NCc4ccc(Oc5ncc(Cl)cn5)c(Cl)c4)n(C)c3c2)n[nH]1 [Compound 473] | < 1 µM | < 10 µM | < 10 µM
Cn1c(NCc2ccc(Oc3cnc(Cl)nc3)cc2)nc2ccc(NC3COC3)cc21 [Compound 341] | < 1 µM | < 10 µM | 10 to 20 µM
OCCNc1nc2ccc(NC3COC3)cc2n1Cc1ccc(Oc2ccc(Cl)cn2)cc1 [Compound 251] | < 1 µM | < 10 µM | < 10 µM
CCC(Nc1nc2ccc(NC3COC3)cc2n1C)c1ccc(Oc2ccc(Cl)cn2)cc1 (stereo not drawn) [Compound 275] | < 1 µM | < 10 µM | < 10 µM
CN(C)c1nc2cc(NCc3ccc(Oc4ccc(Cl)cc4)cc3)ccc2[nH]1 [Compound 123] | < 1 µM | < 10 µM | < 10 µM

Structure (SMILES) | IC50 (human 5-LOX) | EC50 (Rat whole blood (RWB)) | EC50 [1]
Nc1ccc2[nH]c(NCc3ccc(S(=O)(=O)c4ccc(Cl)cc4)cc3)nc2c1 [Compound 129] | < 1 µM | > 20 µM | < 10 µM
CCn1c(NCc2ccc(Oc3ccc(Cl)cn3)cc2)nc2ccc(NC3COC3)cc21 [Compound 270] | < 1 µM | < 10 µM | < 10 µM
CC(Nc1nc2ccc(NC3COC3)cc2n1C)c1ccc(Oc2ccc(Cl)cn2)cc1 (stereo not drawn) [Compound 256] | < 1 µM | < 10 µM | 10 to 20 µM
Cn1nc(Nc2ccc3nc(NCc4ccc(Oc5ncc(Cl)cn5)cc4)n(C)c3c2)cc1C(F)F [Compound 532] | < 1 µM | < 10 µM | < 10 µM
CCC(Nc1nc2ccc(Nc3cc(C(F)(F)F)n(C)n3)cc2n1C)c1ccc(Oc2ncc(C(F)(F)F)cn2)cc1F (stereo not drawn) [Compound 528] | > 10 µM | < 10 µM | < 10 µM
Nc1ccc2c(c1)nc(N)n2Cc1ccc(Oc2ccc(Cl)cn2)cc1 [Compound 199] | < 1 µM | < 10 µM | < 10 µM
Nc1ccc2nc(N3CCC3)n(CCOc3ccc(OC(F)(F)F)cc3)c2c1 [Compound 68] | < 1 µM | > 20 µM | < 10 µM
Cc1cnc(Nc2ccc3nc(NCc4ccc(Oc5ncc(Cl)cn5)cc4)n(C)c3c2)s1 [Compound 492] | < 1 µM | < 10 µM | < 10 µM
Cc1cccnc1Nc1ccc2nc(NCc3ccc(Oc4ncc(Cl)cn4)cc3)n(C)c2c1 [Compound 464] | 1 to 10 µM | < 10 µM | < 10 µM
CNc1nc2ccc(N3CCC(Oc4ccc(OC(F)(F)F)cc4)C3)cc2[nH]1 (stereo not drawn) [Compound 104] | < 1 µM | > 20 µM | < 10 µM
CCC(Nc1nc2ccc(NC3COC3)cc2n1C)c1ccc(Oc2ccc(C(F)(F)F)cn2)cc1F (stereo not drawn) [Compound 550] | < 1 µM | < 10 µM | < 10 µM
Cc1csc(Nc2ccc3nc(NCc4ccc(Oc5ncc(Cl)cn5)cc4)n(C)c3c2)n1 [Compound 501] | < 1 µM | < 10 µM | < 10 µM
CCC(Nc1nc2ccc(Nc3cc(C(F)(F)F)n(C)n3)cc2n1C)c1ccc(Oc2cnc(Cl)cn2)cc1 (stereo not drawn) [Compound 517] | 1 to 10 µM | < 10 µM | < 10 µM
Cn1c(NCc2ccc(Oc3cccnc3)cc2)nc2ccc(NC3COC3)cc21 [Compound 227] | < 1 µM | < 10 µM | < 10 µM
Cn1c(NCc2ccc(Oc3ncc(Cl)cn3)cc2)nc2ccc(Nc3cc(C(C)(C)C)[nH]n3)cc21 [Compound 469] | < 1 µM | < 10 µM | < 10 µM
CC(CC(F)(F)F)Oc1ccc(CNc2nc3ccc(N)cc3[nH]2)cc1 (stereo not drawn) [Compound 172] | < 1 µM | 10 to 20 µM | < 10 µM
Cc1nnc(Nc2ccc3nc(NCc4ccc(Oc5ncc(Cl)cn5)cc4)n(C)c3c2)o1 [Compound 498] | > 10 µM | < 10 µM | > 20 µM
CN(C)c1nc2ccc(NCc3ccc(OCc4ncco4)cc3)cc2[nH]1 [Compound 233] | < 1 µM | < 10 µM | < 10 µM
Cc1cc(Nc2ccc3nc(NCc4ccc(Oc5ccc(C(F)(F)F)cn5)cc4)n(C)c3c2)n[nH]1 [Compound 495] | < 1 µM | < 10 µM | < 10 µM
Cn1c(NCc2ccc(Oc3ccc(Cl)cn3)cc2Cl)nc2ccc(NC3COC3)cc21 [Compound 294] | < 1 µM | > 20 µM | < 10 µM
Cn1c(NCc2ccc(Oc3nc4ccccc4n3C)cc2)nc2ccc(NC3COC3)cc21 [Compound 357] | < 1 µM | 10 to 20 µM | < 10 µM
Cc1[nH]nc(Nc2ccc3nc(NCc4ccc(Oc5ccc(Cl)cn5)cc4)n(C)c3c2)c1Cl [Compound 518] | > 10 µM | < 10 µM | < 10 µM
CCn1c(NCc2ccc(Oc3ncc(C(F)(F)F)cn3)cc2)nc2ccc(Nc3cc(C(C)(C)C)[nH]n3)cc21 [Compound 507] | < 1 µM | 10 to 20 µM | < 10 µM
